Test results from patent US20250195468A1, “METHODS AND COMPOSITIONS FOR TREATING COLORECTAL CANCER WITH INDOXYL SULFATE” (National Institute of Immunology, priority 2023, published 2025).
Structures can show the parent of a compound that is named as a salt.

What was measured:
HT-29 cells [1] = assay: Membrane integrity by LDH assay; type: cell-based, human; conditions: 48 hours, 0.1% Triton X-100 = 100%
Description: (§1) Membrane integrity was assessed using the LDH based in vitro toxicology kit obtained from Sigma-Aldrich. The assay was conducted following the manufacturer's protocol. HCT-116 and HT-29 cells were cultured in a 96-well plate at a density of 10,000 cells per well. After 24 hours of seeding, the cells were treated with IS at concentrations of 1.25 mM, 5 mM, and 10 mM. Following a 48-hour treatment period, the cells were centrifuged, and 100 μl of supernatant was collected into a fresh 96-well plate to measure the amount of LDH released into the media by necrotic cells. Subsequently, 100 μl of the dosing reagent was added and incubated for 30 minutes at 37° C. After incubation, 20 μl of […] stop solution was added. Absorbance was measured at 690 nm and 490 nm using a ClarioStar plate reader (BMG Labtech, Ortenberg, Germany). The background absorbance at 690 nm was subtracted from the 490 nm absorbance. For the positive control, 0.1% Triton X-100 was used and considered as maximum LDH release. Untreated cells served as the negative control. The membrane integrity of IS-exposed cells was compared to that of untreated cells. The following formula was used to calculate the LDH release from the cells: Experimental LDH release (OD490)×100/maximum LDH release (OD490).

HCT-116 cells [2] = assay: Membrane integrity by LDH assay; type: cell-based, human; conditions: 48 hours, 0.1% Triton X-100 = 100%
Description: as §1

HT-29 cells [3] = assay: Clonogenic (colony forming) assay; type: cell-based, human; conditions: HT-29, 1.25-10 mM for 48 hours, 10 days colony growth
Description: (§2) To assess the colony-forming ability of cells after treatment with IS, a colony forming assay was performed. HCT-116 and HT-29 cells were cultured in 6-well plates at a density of 2×10^5 cells per well. After 24 hours of seeding, the cells were exposed to IS at concentrations of 1.25 mM, 5 mM, and 10 mM. Following a 48-hour treatment period, the cells were harvested using trypsin and counted for each treatment. From each treatment group, 400, 800, and 1200 cells were plated and incubated for 10 days in 6-well plates. During the incubation period, the media were replenished every alternate day. After 10 days, the colonies were washed with PBS and stained with 0.5% crystalline violet. The cells were then fixed with 6% glutaraldehyde. The colonies were visualized and counted using ImageJ software. The clonogenic efficiency of the treated cells was compared to that of the untreated cells.

HCT-116 cells [4] = assay: Clonogenic (colony forming) assay; type: cell-based, human; conditions: HCT-116, 1.25-10 mM for 48 hours, 10 days colony growth
Description: as §2

HT-29 cells [5] = assay: CellTiter-Glo luminescent cell viability assay (ATP content); type: cell-based; conditions: Homo sapiens; HT-29, 72 hours; concentration not stated in b112 (FIG. 2: most cytotoxic at 10 mM)
Description: Cell viability was also assessed using the CellTiter-Glo R: Assay kit, which measures the amount of ATP to indicate cellular metabolic activity. HT-29 and HCT-116 cells were cultured in a 96-well plate at a density of 2500 cells per well. After 24 hours of seeding, the cells were exposed to various concentrations of IS, including 0.018 mM, 0.037 mM, 0.075 mM. 0.15 mM, 0.31 mM, 0.62 mM, 1.25 mM, 2.5 mM, 5 mM, and 10 mM. Triplicate wells were treated with IS for two different incubation periods: 48 hours and 72 hours. After the respective incubation periods. the assay was performed following the manufacturer's protocol. The details of the protocol can be found in the kit provided by the manufacturer. In summary, luminescence was measured using a Sirius Luminometer V3.2 (Berthold DETECTIONN SYSTEMS) with a measurement delay time of 2 seconds and a measurement time of 5 seconds. Non-treated cells were used as controls, representing 100% metabolically active cells in terms of ATP content.

HT-29 cells [6] = assay: Cellular imaging (cell morphology); type: cell-based, human; conditions: HT-29, 1.25-10 mM, 24, 48, 72 hours
Description: (§3) To assess the morphological changes of the cells following treatment, HT-29 and HCT-116 cells were cultured in 12-well plates at a concentration of […] cells per well. After 24 hours of seeding, the cells were treated with IS at concentrations of 1.25 mM, 5 mM, and 10 mM. The cells were exposed to IS in triplicate for three different incubation periods: 24 hours, 48 hours, and 72 hours. After the respective incubation periods, the cells were examined using a Nikon microscope equipped with a 20× objective. Images were captured using a digital camera and the NIS-Elements 3.0 software.

HCT-116 cells [7] = assay: Cellular imaging (cell morphology); type: cell-based, human; conditions: HCT-116, 1.25-10 mM, 24, 48, 72 hours
Description: as §3

[8] = tested on: human adenocarcinoma cells; assay: Oxidative stress by DHE staining; type: cell-based; conditions: DHE staining after 48 hours of treatment
Description: (§4) In the in vitro study, cells were exposed to various doses of indoxyl sulfate ranging from 0.038 mM to 10 mM for three different incubation periods (24 hours, 48 hours, and 72 hours). A decrease in cell proliferation efficiency was observed after 48 hours of treatment, with the most significant effects observed at concentrations of 5 mM and 10 mM of indoxyl sulfate. […] Decrease in cellular ATP content indicates the diminished cellular metabolic activity and may be linked with cell death. Considering these findings. the apoptotic effect of indoxyl sulfate was examined. […] Another study on the osteoblast cell line MC3T3-E1 also confirmed that IS acts as a bone toxin by inducing cell apoptosis and inhibiting differentiation. […] To account for this study. cells were also assessed for oxidative stress in this invention by staining them with […] (DHE) after 48 hours of treatment. […] The potential for IS to cause DNA damage was also investigated.

[9] = tested on: human adenocarcinoma cells; assay: Comet assay (DNA damage); type: cell-based; conditions: cell lysate after IS treatment
Description: as §4

## O=S(=O)(O)Oc1c[nH]c2ccccc12 [IS, Indoxyl Sulfate]
HT-29 cells [1]; HT-29, 5 mM
  LDH release in the supernatant: 82%
HT-29 cells [1]; HT-29, 10 mM
  LDH release in the supernatant: 85%
HCT-116 cells [2]; HCT-116, 5 mM
  LDH release in the supernatant: 80%
HCT-116 cells [2]; HCT-116, 10 mM
  LDH release in the supernatant: 86%
HT-29 cells [3]
  number of colonies formed compared to control: significant reduction in the number of colonies formed
HCT-116 cells [4]
  number of colonies formed compared to control: significant reduction in the number of colonies formed
HT-29 cells [5]
  viability at 10000 µM: 19%
HT-29 cells [6]
  cell morphology: rounded morphology, reduced cell numbers, and detachment from the culture substrate
HCT-116 cells [7]
  cell morphology: rounded morphology, reduced cell numbers, and detachment from the culture substrate
[8]
  production of ROS: did not cause any production of ROS
[9]
  DNA damage (comet formation): does not show formation of any comet
